Laboratory results reported in ChEMBL document CHEMBL4184107, “Structure based design of nicotinamide phosphoribosyltransferase (NAMPT) inhibitors from a phenotypic screen” (Bioorg Med Chem Lett, 2018).

Experiments:
[1] = Permeability of the compound by PAMPA; assay type: ADME
[2] = Clearance in mouse liver microsomes; assay type: ADME, microsome; details: read-out: CLH
[3] = AUC in nude mouse at 10 mg/kg, po by HPLC-MS/MS analysis; assay type: ADME, organism-based; details: in vivo
[4] = Oral bioavailability in nude mouse at 10 mg/kg by HPLC-MS/MS analysis; assay type: ADME, organism-based; details: in vivo
[5] = Volume of distribution at steady state in nude mouse at 1 mg/kg, iv by HPLC-MS/MS analysis; assay type: ADME, organism-based; details: in vivo, read-out: Vdss
[6] = AUC in nude mouse at 1 mg/kg, iv by HPLC-MS/MS analysis; assay type: ADME, organism-based; details: in vivo
[7] = Tmax in nude mouse at 10 mg/kg, po by HPLC-MS/MS analysis; assay type: ADME, organism-based; details: in vivo
[8] = Half life in nude mouse at 1 mg/kg, iv by HPLC-MS/MS analysis; assay type: ADME, organism-based; details: in vivo
[9] = Cmax in nude mouse at 10 mg/kg, po by HPLC-MS/MS analysis; assay type: ADME, organism-based; parameters: dose 10 mg/kg, route oral; details: in vivo
[10] = Clearance in nude mouse at 1 mg/kg, iv by HPLC-MS/MS analysis; assay type: ADME, organism-based; details: in vivo
[11] = Half life in mouse microsomes; assay type: ADME, Microsome
[12] = Tmax in nude mouse at 15 mg/kg, po by HPLC-MS/MS analysis; assay type: ADME, organism-based; details: in vivo
[13] = AUC in nude mouse at 15 mg/kg, po by HPLC-MS/MS analysis; assay type: ADME, organism-based; details: in vivo
[14] = Cmax in nude mouse at 15 mg/kg, po by HPLC-MS/MS analysis; assay type: ADME, organism-based; parameters: dose 15 mg/kg, route oral; details: in vivo

| Structure (SMILES) | permeability [1] | microsomal CLint [2] [µL/min/mg] | also measured |
| --- | --- | --- | --- |
| C[C@H](NC(=O)C1CCOCC1)c1ccc(NC(=O)[C@H]2C[C@@H]2c2cccnc2)cc1 | Impermeable | 25.1 | – |
| C[C@H](NC(=O)c1ccccn1)c1ccc(NC(=O)[C@H]2C[C@@H]2c2cccnc2)cc1 | Permeable | < 3.42 | – |
| C[C@H](NC(=O)c1ccc(F)cc1)c1ccc(NC(=O)[C@H]2C[C@@H]2c2cccnc2)cc1 | Permeable | 13.7 | – |
| C[C@H](NC(=O)[C@@H]1CCCN1C)c1ccc(NC(=O)[C@H]2C[C@@H]2c2cccnc2)cc1 | Permeable | 65.4 | – |
| C[C@H](NC(=O)c1ccccc1)c1ccc(NC(=O)[C@H]2C[C@@H]2c2cccnc2)cc1 | Permeable | 148 | AUC [3]: 19.2 µM·h; bioavailability [4]: 31%; Vd [5]: 0.5 L/kg; AUC [6]: 6.18 µM·h; Tmax [7]: 0.5 h; half-life [8]: 1.5 h; Cmax [9]: 12.7 µM; clearance [10]: 6.8 mL/min/kg |
| COCC(=O)N[C@@H](C)c1ccc(NC(=O)[C@H]2C[C@@H]2c2cccnc2)cc1 | Impermeable | 43.2 | – |
| C[C@H](NC(=O)c1ccc(C#N)cc1)c1ccc(NC(=O)[C@H]2C[C@@H]2c2cccnc2)cc1 | Impermeable | 53 | – |
| C[C@H](NC(=O)c1ccc(CN2CCOCC2)cc1)c1ccc(NC(=O)[C@H]2C[C@@H]2c2cccnc2)cc1 | Impermeable | – | half-life [11]: 7.67 h |
| C[C@H](NC(=O)c1ncccn1)c1ccc(NC(=O)[C@H]2C[C@@H]2c2cccnc2)cc1 | Permeable | 38.4 | – |
| CCC(=O)N[C@@H](C)c1ccc(NC(=O)[C@H]2C[C@@H]2c2cccnc2)cc1 | Impermeable | – | half-life [11]: 35 h |
| C[C@H](NC(=O)CC(F)(F)F)c1ccc(NC(=O)[C@H]2C[C@@H]2c2cccnc2)cc1 | Impermeable | 83.7 | – |
| O=C(NCc1ccc(S(=O)(=O)c2cccc(Cl)c2)cc1)c1cc2cnccc2[nH]1 | – | – | Tmax [12]: 1 h; AUC [13]: 9.2 µM·h; Cmax [14]: 2.07 µM |
